Reference: patent publication US20120302516A1, “NANOPARTICLES FOR DRUG DELIVERY” (UNIVERSITY OF LOUISVILLE RESEARCH FOUNDATION, INC., priority 2009, published 2012)
Where a name gives a salt, the structure may show the parent alone.

What was measured:
MCF-7 cells = test: AEM field-induced drug release in MCF-7 cells; dead (floating) cells counted by hemocytometer after 48 h; assay type: cell-based, Human; settings: AEM field exposure No, no Fe3O4, 0.3 mg Dox
Protocol: Breast cancer MCF-7 cells were treated with the resultant Dox-NP formulations, and the treated cells then were either allowed to incubate or briefly exposed to an AEM field to induce drug release from the Dox-NP formulations.
AEM field study. Results of MCF-7 cells treated with nanoparticle-doxorubicin formulations followed by alternating electromagnetic (AEM) field exposure (15 mins, 350 A, 203 KHz) were obtained. Cells plated in 30 mm dishes were treated with NP formulations at a 0.5 mg Fe3O4 dose unless otherwise specified. Doxorubicin loadings per mg NP formulation were as follows: dNP.AO.Dox (0.64 mg Dox/mg), sNP.AO.Dox (0.43 mg Dox/mg), NP.Dox (0.05 mg Dox/mg). […]
Cell culture toxicity study. Human breast cancer cells (MCF-7) were purchased from American Type Culture Collection (VA, USA). Cells were plated in 30 mm dishes at ˜4˜10^5 cells/dish, and then grown up to 50-60% confluency in DMEM, 1% Pennstrep (Mediatech, Inc, VA) and 10% FBS (Valley Biomedical, Winchester, Va.).
Alternating electromagnetic field-induced drug release in MCF-7 cells. […]
Each measured amount of NP formulation was diluted to 2 mL by adding DMEM containing 10% FBS. […]

[1] = AEM field-mediated release of FITC conjugates from NP.(AO).FITC particles, supernatant fluorescence (HPLC); assay type: physicochemical; settings: water, AEM field 201.4 A, 203 kHz, 30 minutes, after washes
From the text: The fluorophore FITC-CHO was attached to iron oxide nanoparticles by reaction with NP-bound aminooxy compounds (previously described compounds 6.1, 7.1 and the diol analog of 7.1) to show the influence of resident hydroxyl functionality on the binding and release properties of derived iron oxide formulations. Scheme E below depicts the fluorophore aldehyde and the three oxime ether conjugates selected for this study. Using the stepwise synthesis method, FITC-CHO was mixed with NP-AO particles derived from the three aminooxy compounds to give the NP.(AO).FITC fluorophore formulations. […] The relative binding and release properties were measured by fluorescence spectroscopy on the supernatant solutions after magnetic separation of the nanoparticles and/or NP.(AO).FITC particles.
Integration of the supernatant fluorescence after NP washing and after AEM field irradiation is indicative of the binding to the nanoparticles and the release of FITC into the supernatant. […]
To a suspension of the NP.AO (3 mg) in methanol at room temperature was added a solution of FITC-CHO in methanol (0.01M, 50 μL/mg of NP.AO). […] The particles then were magnetically separated, the supernatant was removed and analyzed. The particles were washed twice with methanol (3× reaction volume) and the supernatants collected each time and analyzed. […]

Row | SMILES | MCF-7 cell death, extent (major/minor) (MCF-7 cells; continuation line of the cell death cell) | MCF-7 cell death (MCF-7 cells; relative to 'cells only' control, 48 h) | release into supernatant (fluorescence) after AEM field exposure [1]
1 | COc1cccc2c1C(=O)c1c(O)c3c(c(O)c1C2=O)C[C@@](O)(C(=O)CO)C[C@@H]3O[C@H]1C[C@H](N)[C@H](O)[C@H](C)O1 [Dox, doxorubicin.HCl] | (major) | Yes | –
2 | O=CCCCNC(=S)Nc1ccc(-c2c3ccc(=O)cc-3oc3cc(O)ccc23)c(C(=O)O)c1 [FITC-CHO] | – | – | no recovery of fluorescence after exposure to an AEM field
3 | C[N+](CCO)(CCO)CCO/N=C/CCCNC(=S)Nc1ccc(-c2c3ccc(=O)cc-3oc3cc(O)ccc23)c(C(=O)O)c1 [FITC-III] | – | – | considerable FITC-conjugate is released into solution
